Test results taken from patent publication US6803357B1, “Method of regulating glucose metabolism, and reagents related thereto” (New England Medical Center Hospitals, Inc., priority 1999, dated 2004).

Tests used:
[1] = tested on: DP-IV; assay: inhibition of / affinity for DP-IV; type: biochemical
Procedure: As an illustrative embodiment, the ability of a test agent to inhibit DPIV can be assessed using a calorimetric or fluorometric substrate, such as Ala-Pro-paranitroanilide. […] Moreover, DPIV can be purified, and is accordingly readily amenable for use in such high throughput formats as multi-well plates.
An illustrative reaction mixture includes […] (pH7.8), 10 μM Ala-Pro-paranitroanilide, 6 milliunits of DPIV, and 2% (v/v) dimethylformamide in a total volume of 1.0 mL. The reaction is initiated by addition of enzyme, and formation of reaction product (paranitroanilide) in the presence and absence of a test compound can be detected photometrically, e.g., at 410 nm.

[2] = tested on: blood glucose levels; assay: oral glucose tolerance test (oral glucose challenge) in mice; type: in vivo; details: for glucose levels in blood / glucose control after a single injection: acute, single injection before oral glucose tolerance test; for blood sugar levels / glycemic excursion to oral glucose challenge, chronic treatment: injected twice daily for four days, then oral glucose challenge; for response to a sub-therapeutic dose of GLP-1: single injection, 8 μg GLP-1 five minutes prior to glucose
Procedure: The first two experiments are “acute” experiments wherein the mice were injected with a single dose of Pro-boro-pro. In the first set of experiments mice were injected with 150 μg of Pro-boro-pro (PBP-1) and then subjected to an oral glucose tolerance test within an hour. […] In a second set of experiments mice were injected with Pro-boro-pro (PBP-2) one hour prior to an oral glucose challenge test. FIG. 3 presents the results of these experiments. Each set of experiments was also performed using saline as a control.
The third set of experiments were “chronic” experiments, wherein the mice were injected twice daily with Pro-boro-pro for four days, followed by an oral glucose challenge.

In the case of CC(NC(=O)OC(C)(C)C)C(=O)N1CCCC1B(O)O (stereo not drawn) [Boc-blocked Ala-boroPro, Boc-Ala-boroPro], the “affinity for DP-IV” value [1] is reported as “no affinity”.
For O=C(C1CCCN1)N1CCCC1B(O)O (centres unmarked) [Pro-boro-pro], the “fasting blood sugars, chronic treatment” value ([2]; chronic (>5 days) treatment alone) was “lowers”, the “glucose levels in blood / glucose control after a single injection” value ([2]; mice) was “alone sufficient to improve glucose control” and the “glucose levels in blood / glucose control after a single injection” value ([2]; mice, listed as PBP-1) was “improves glucose levels in blood”. For the same molecule, the “glucose levels in blood / glucose control after a single injection” value ([2]; mice, listed as PBP-2) was “improves glucose levels in blood”, the “blood sugar levels / glycemic excursion to oral glucose challenge, chronic treatment” value ([2]; mice) was “lowers” and the “blood sugar levels / glycemic excursion to oral glucose challenge, chronic treatment” value ([2]; mice, listed as PBP-3) was “lowering of the blood sugar levels”. For the same molecule, the “blood sugar, oral glucose challenge” value ([2]; mice, overall statement on the experiments) was “clearly lowers blood sugar”, the “response to a sub-therapeutic dose of GLP-1” value ([2]; mice) was “potentiate the response” and the “response to a sub-therapeutic dose of GLP-1” value ([2]; mice, listed as PBP-1) was “potentiates the response”.
For “L-Ala-L-boroPro-pinacol [early fraction]”, the “extent of DP-IV inhibition compared with later fractions” value ([1]; at equal concentrations, silica gel fractions of Ala-boroPro-pinacol) was “inhibits DP-IV to a greater extent than later fractions”.
